From ChEMBL document CHEMBL1649267, “Molecular epidemiology and mechanisms of carbapenem resistance in Pseudomonas aeruginosa” (2009)

Experiments:
Pseudomonas aeruginosa [1] = type: functional; conditions: isolate Paebeta-11
Pseudomonas aeruginosa [2] = type: functional; conditions: isolate Paebeta-13
Pseudomonas aeruginosa [3] = type: functional; conditions: isolate Paebeta-05
Pseudomonas aeruginosa [4] = type: functional; conditions: isolate Paebeta-18
Pseudomonas aeruginosa [5] = type: functional; conditions: isolate Paebeta-20
Pseudomonas aeruginosa [6] = type: functional; conditions: isolate Paebeta-14
Pseudomonas aeruginosa [7] = type: functional; conditions: isolate Paebeta-12
Pseudomonas aeruginosa [8] = type: functional; conditions: isolate Paebeta-30
Pseudomonas aeruginosa [9] = type: functional; conditions: isolate Paebeta-04
Pseudomonas aeruginosa [10] = type: functional; conditions: isolate Paebeta-25
Pseudomonas aeruginosa [11] = type: functional; conditions: isolate Paebeta-31
Pseudomonas aeruginosa [12] = type: functional; conditions: isolate Paebeta-16
Pseudomonas aeruginosa [13] = type: functional; conditions: isolate Paebeta-08
Pseudomonas aeruginosa [14] = type: functional; conditions: isolate Paebeta-09
Pseudomonas aeruginosa [15] = type: functional; conditions: isolate Paebeta-07
Pseudomonas aeruginosa [16] = type: functional; conditions: isolate Paebeta-21
Pseudomonas aeruginosa [17] = type: functional; conditions: isolate Paebeta-08; remark: listed apart in the source
Pseudomonas aeruginosa [18] = type: functional; conditions: isolate Paebeta-17
Pseudomonas aeruginosa [19] = type: functional; conditions: isolate Paebeta-16; remark: listed apart in the source
Pseudomonas aeruginosa [20] = type: functional; conditions: isolate Paebeta-14; remark: listed apart in the source
Pseudomonas aeruginosa [21] = type: functional; conditions: isolate Paebeta-32
Pseudomonas aeruginosa [22] = type: functional; conditions: isolate Paebeta-03
Pseudomonas aeruginosa [23] = type: functional; conditions: isolate Paebeta-04; remark: listed apart in the source
Pseudomonas aeruginosa [24] = type: functional; conditions: isolate Paebeta-13; remark: listed apart in the source
Pseudomonas aeruginosa [25] = type: functional; conditions: isolate Paebeta-10
Pseudomonas aeruginosa [26] = type: functional; conditions: isolate Paebeta-09; remark: listed apart in the source
Pseudomonas aeruginosa [27] = type: functional; conditions: isolate Paebeta-28
Pseudomonas aeruginosa [28] = type: functional; conditions: isolate Paebeta-26
Pseudomonas aeruginosa [29] = type: functional; conditions: isolate Paebeta-29
Pseudomonas aeruginosa [30] = type: functional; conditions: isolate Paebeta-30; remark: listed apart in the source
Pseudomonas aeruginosa [31] = type: functional; conditions: isolate Paebeta-32; remark: listed apart in the source
Pseudomonas aeruginosa [32] = type: functional; conditions: isolate Paebeta-27
Pseudomonas aeruginosa [33] = type: functional; conditions: isolate Paebeta-24
Pseudomonas aeruginosa [34] = type: functional; conditions: isolate Paebeta-25; remark: listed apart in the source
Pseudomonas aeruginosa [35] = type: functional; conditions: isolate Paebeta-05; remark: listed apart in the source
Pseudomonas aeruginosa [36] = type: functional; conditions: isolate Paebeta-10; remark: listed apart in the source
Pseudomonas aeruginosa [37] = type: functional; conditions: isolate Paebeta-06
Pseudomonas aeruginosa [38] = type: functional; conditions: isolate Paebeta-18; remark: listed apart in the source
Pseudomonas aeruginosa [39] = type: functional; conditions: isolate Paebeta-28; remark: listed apart in the source
Pseudomonas aeruginosa [40] = type: functional; conditions: isolate Paebeta-29; remark: listed apart in the source
Pseudomonas aeruginosa [41] = type: functional; conditions: isolate Paebeta-20; remark: listed apart in the source
Pseudomonas aeruginosa [42] = type: functional; conditions: isolate Paebeta-15
Pseudomonas aeruginosa [43] = type: functional; conditions: isolate Paebeta-19
Pseudomonas aeruginosa [44] = type: functional; conditions: isolate Paebeta-07; remark: listed apart in the source
Pseudomonas aeruginosa [45] = type: functional; conditions: isolate Paebeta-22
Pseudomonas aeruginosa [46] = type: functional; conditions: isolate Paebeta-06; remark: listed apart in the source
Pseudomonas aeruginosa [47] = type: functional; conditions: isolate Paebeta-03; remark: listed apart in the source
Pseudomonas aeruginosa [48] = type: functional; conditions: isolate Paebeta-21; remark: listed apart in the source
Pseudomonas aeruginosa [49] = type: functional; conditions: isolate Paebeta-31; remark: listed apart in the source
Pseudomonas aeruginosa [50] = type: functional; conditions: isolate Paebeta-11; remark: listed apart in the source
Pseudomonas aeruginosa [51] = type: functional; conditions: isolate Paebeta-23
Pseudomonas aeruginosa [52] = type: functional; conditions: isolate Paebeta-24; remark: listed apart in the source
Pseudomonas aeruginosa [53] = type: functional; conditions: isolate Paebeta-22; remark: listed apart in the source
Pseudomonas aeruginosa [54] = type: functional; conditions: isolate Paebeta-23; remark: listed apart in the source
Pseudomonas aeruginosa [55] = type: functional; conditions: isolate Paebeta-17; remark: listed apart in the source
Pseudomonas aeruginosa [56] = experiment: microbe, parasite or virus in culture; conditions: isolate Paebeta-12
Description: Antibacterial activity against mexB, mexY and mexD expressing Pseudomonas aeruginosa isolate Paebeta-12 harboring A residue at 105 position in PDC- 2 and polymorphic OprD gene by Etest method in presence of cloxacillin

Pseudomonas aeruginosa [57] = type: functional; conditions: isolate Paebeta-27; remark: listed apart in the source
Pseudomonas aeruginosa [58] = type: functional; conditions: isolate Paebeta-15; remark: listed apart in the source
Pseudomonas aeruginosa [59] = type: functional; conditions: isolate Paebeta-01
Pseudomonas aeruginosa [60] = type: functional; conditions: isolate Paebeta-26; remark: listed apart in the source
Pseudomonas aeruginosa [61] = type: functional; conditions: isolate Paebeta-01; remark: listed apart in the source
Pseudomonas aeruginosa [62] = type: functional; conditions: isolate Paebeta-02
Pseudomonas aeruginosa [63] = type: functional; conditions: isolate Paebeta-19; remark: listed apart in the source
Pseudomonas aeruginosa [64] = type: functional; conditions: isolate Paebeta-02; remark: listed apart in the source

Measured: MIC

C[C@@H](O)[C@H]1C(=O)N2C(C(=O)O)=C(SCCNC=N)C[C@H]12 [IMIPENEM ANHYDROUS]
32 µg/mL: Pseudomonas aeruginosa [18] | Pseudomonas aeruginosa [19] | Pseudomonas aeruginosa [32] | Pseudomonas aeruginosa [51] | Pseudomonas aeruginosa [52]
4 µg/mL: Pseudomonas aeruginosa [5] | Pseudomonas aeruginosa [9] | Pseudomonas aeruginosa [12] | Pseudomonas aeruginosa [28] | Pseudomonas aeruginosa [39] | Pseudomonas aeruginosa [43]
0.5 µg/mL: Pseudomonas aeruginosa [2] | Pseudomonas aeruginosa [53]
1 µg/mL: Pseudomonas aeruginosa [56]
64 µg/mL: Pseudomonas aeruginosa [4] | Pseudomonas aeruginosa [31]
2 µg/mL: Pseudomonas aeruginosa [1] | Pseudomonas aeruginosa [6] | Pseudomonas aeruginosa [14] | Pseudomonas aeruginosa [16] | Pseudomonas aeruginosa [17] | Pseudomonas aeruginosa [22] | Pseudomonas aeruginosa [36] | Pseudomonas aeruginosa [44] | Pseudomonas aeruginosa [46]
8 µg/mL: Pseudomonas aeruginosa [8] | Pseudomonas aeruginosa [10] | Pseudomonas aeruginosa [30] | Pseudomonas aeruginosa [33] | Pseudomonas aeruginosa [34] | Pseudomonas aeruginosa [45] | Pseudomonas aeruginosa [54] | Pseudomonas aeruginosa [55]
not listed: Pseudomonas aeruginosa [58] | Pseudomonas aeruginosa [59] | Pseudomonas aeruginosa [60] | Pseudomonas aeruginosa [61] | Pseudomonas aeruginosa [62] | Pseudomonas aeruginosa [63] | Pseudomonas aeruginosa [64]
16 µg/mL: all other assays above

C[C@@H](O)[C@H]1C(=O)N2C(C(=O)O)=C(S[C@@H]3CN[C@H](C(=O)N(C)C)C3)[C@H](C)[C@H]12 [MEROPENEM]
1 µg/mL: Pseudomonas aeruginosa [53]
32 µg/mL: Pseudomonas aeruginosa [29] | Pseudomonas aeruginosa [38] | Pseudomonas aeruginosa [40] | Pseudomonas aeruginosa [48] | Pseudomonas aeruginosa [52]
4 µg/mL: Pseudomonas aeruginosa [5] | Pseudomonas aeruginosa [14] | Pseudomonas aeruginosa [19] | Pseudomonas aeruginosa [20] | Pseudomonas aeruginosa [58] | Pseudomonas aeruginosa [22] | Pseudomonas aeruginosa [60] | Pseudomonas aeruginosa [27] | Pseudomonas aeruginosa [28] | Pseudomonas aeruginosa [36] | Pseudomonas aeruginosa [39] | Pseudomonas aeruginosa [62] | Pseudomonas aeruginosa [43] | Pseudomonas aeruginosa [45] | Pseudomonas aeruginosa [63] | Pseudomonas aeruginosa [64] | Pseudomonas aeruginosa [55]
2 µg/mL: Pseudomonas aeruginosa [1] | Pseudomonas aeruginosa [2] | Pseudomonas aeruginosa [6] | Pseudomonas aeruginosa [12] | Pseudomonas aeruginosa [17] | Pseudomonas aeruginosa [44] | Pseudomonas aeruginosa [46] | Pseudomonas aeruginosa [56]
16 µg/mL: Pseudomonas aeruginosa [9] | Pseudomonas aeruginosa [16] | Pseudomonas aeruginosa [23] | Pseudomonas aeruginosa [31] | Pseudomonas aeruginosa [33] | Pseudomonas aeruginosa [51]
not listed: Pseudomonas aeruginosa [4] | Pseudomonas aeruginosa [32] | Pseudomonas aeruginosa [57]
8 µg/mL: all other assays above
